Test results reported in ChEMBL document CHEMBL1135448, “Synthesis and SAR of N-substituted dibenzazepinone derivatives as novel potent and selective alpha(V)beta(3) antagonists” (Bioorg Med Chem Lett, 2002).
Several values for one entry are separate records, joined by “and”; a condition that tells them apart may be missing. Equal entries are not always repeated. Activity calls are given as the source filed them. No cut-off for these calls is given here.

Columns and labels:
[1] = molecular target: Integrin alpha-IIb/beta-3 (Homo sapiens, UniProt P05106+P08514); assay: Displacement of alphaIIb-beta3 integrin from fibrinogen by ELISA; type: protein-complex assay
[2] = molecular target: Integrin alpha-5/beta-1 (Homo sapiens) (UniProt P05556+P08648); assay: Cell adhesion via alpha5-beta1 integrin to fibronectin at 10e-5 M (Not active); type: protein-complex assay
Caco-2 = assay: Apparent permeability constant (Papp) was evaluated for Caco-2 model permeation; type: functional, cell-based; details: Homo sapiens
[3] = molecular target: Integrin alpha-4/beta-1 (Homo sapiens) (UniProt P05556+P13612); assay: Cell adhesion of alpha4-beta1 integrin to fibronectin at 10e-5 M (Not active); type: protein-complex assay
Homo sapiens = species on record: Homo sapiens; assay: Evaluated for primary human smooth muscle cell migration; type: functional
Integrin alpha-V/beta-3 [4] = molecular target: T1, Integrin alpha-V/beta-3 (Homo sapiens, UniProt P05106+P06756); assay: Adhesion of recombinant alphaV-beta3 integrin expressed in CHO-K1 to osteopontin (OPN); type: cell-based
Integrin alpha-V/beta-3 [5] = molecular target: T1, Integrin alpha-V/beta-3; assay: Affinity against alpha V-beta3 integrin via competitive ELISA using vitronectin as natural ligand; type: protein-complex assay
Integrin alpha-V/beta-3 [6] = molecular target: T1, Integrin alpha-V/beta-3; assay: Displacement of vitronectin from alphaV-beta3 integrin in ELISA (Not active); type: protein-complex assay
Integrin alpha-V/beta-3 [7] = molecular target: T1, Integrin alpha-V/beta-3; assay: Cell adhesion of alphaV-beta3 integrin expressed in CHO-K1 cell to osteopontin (OPN); type: cell-based

Compound	IC50 (Integrin alpha-V/beta-3 [5])	further results
O=C(O)CC1c2ccccc2C(=O)N(CC(=O)NC[C@H]2CC[C@H](Nc3nc4ccccc4[nH]3)CC2)c2ccccc21 (some centres undefined)	1.6 nM	IC50 [1]: > 100000 nM; inhibition [2]: inactive; Papp (Caco-2): 2.7 ×10⁻⁶ cm/s; inhibition [3]: inactive; Inhibition (Homo sapiens): 100%; IC50 (Integrin alpha-V/beta-3 [4]): 40 nM
O=C(O)CC1c2ccccc2C(=O)N(CC(=O)NCc2cc(-c3nc4ncccc4[nH]3)cs2)c2ccccc21 (centres undefined)	500 nM	
O=C(O)CC1c2ccccc2C(=O)N(CC(=O)NCCc2ccc(-c3nc4ccccc4[nH]3)cc2)c2ccccc21 (centres undefined)	380 nM	
O=C(O)CC1c2ccccc2C(=O)N(CC(=O)NCc2ccc(Nc3ccccn3)cc2)c2ccccc21 (centres undefined)	5000 nM	
O=C(O)CC1c2ccccc2C(=O)N(CC(=O)NCCCNc2ccccn2)c2ccccc21 (centres undefined)	1000 nM	
O=C(O)CC1c2ccccc2C(=O)N(CC(=O)NCCCCCNc2nc3ccccc3[nH]2)c2ccccc21 (centres undefined)	12.9 nM	
O=C(O)CC1c2ccccc2C(=O)N(CC(=O)NCc2ccc(NC(=O)CCc3ccccc3)cc2)c2ccccc21 (centres undefined)		IC50 (Integrin alpha-V/beta-3 [6]): Not Active
N=C(N)c1csc(CNC(=O)CN2C(=O)c3ccccc3C(CC(=O)O)c3ccccc32)c1 (centres undefined)	1000 nM	
O=C(O)CC1c2ccccc2C(=O)N(CCOCc2ccc(NC(=O)NCc3ccccc3)cc2)c2ccccc21 (centres undefined)		IC50 (Integrin alpha-V/beta-3 [6]): Not Active
O=C(O)CC1c2ccccc2C(=O)N(CC(=O)NCc2ccc(Nc3nc4ccccc4[nH]3)cc2)c2ccccc21 (centres undefined)	7 nM and 7.3 nM	IC50 [1]: > 100000 nM; inhibition [2]: inactive; IC50 (Integrin alpha-V/beta-3 [7]): 100 nM; inhibition [3]: inactive; Inhibition (Homo sapiens): 67%
O=C(O)CC1c2ccccc2C(=O)N(CCNCc2ccc(NC(=O)NCc3ccccc3)cc2)c2ccccc21 (centres undefined)		IC50 (Integrin alpha-V/beta-3 [6]): Not Active
O=C(O)CC1c2ccccc2C(=O)N(CC(=O)NCc2cc(-c3nc4ccccc4[nH]3)cs2)c2ccccc21 (centres undefined)	100 nM	
O=C(O)CC1c2ccccc2C(=O)N(CC(=O)NCc2ccc(NC(=O)NCc3ccccc3)cc2)c2ccccc21 (centres undefined)	23 nM	
O=C(O)CC1c2ccccc2C(=O)N(CC(=O)NCc2ccc(-c3nc4ccccc4[nH]3)cc2)c2ccccc21 (centres undefined)	74 nM	
O=C(O)CC1c2ccccc2C(=O)N(CC(=O)NCc2ccc(-c3nc4ccccc4[nH]3)s2)c2ccccc21 (centres undefined)	500 nM	
Cc1cc2nc(-c3ccc(CNC(=O)CN4C(=O)c5ccccc5C(CC(=O)O)c5ccccc54)cc3)[nH]c2cc1C (centres undefined)	220 nM	
O=C(O)CC1c2ccccc2C(=O)N(CC(=O)Nc2ccc(-c3nc4ccccc4[nH]3)cc2)c2ccccc21 (centres undefined)	5000 nM	
O=C(O)CC1c2ccccc2C(=O)N(CCCCc2ccc(NC(=O)NCc3ccccc3)cc2)c2ccccc21 (centres undefined)	10000 nM	
O=C(O)CC1c2ccccc2C(=O)N(CC(=O)NCc2ccc(-c3nc4cc(Cl)ccc4[nH]3)cc2)c2ccccc21 (centres undefined)	620 nM	
O=C(O)CC1c2ccccc2C(=O)N(CC(=O)NCc2nc3ccccc3[nH]2)c2ccccc21 (centres undefined)	1000 nM	
O=C(O)CC1c2ccccc2C(=O)N(CC(=O)NCCCCNc2nc3ccccc3[nH]2)c2ccccc21 (centres undefined)	14.9 nM	
O=C(O)CC1c2ccccc2C(=O)N(CC(=O)NCc2cc(CNc3ccccn3)cs2)c2ccccc21 (centres undefined)	220 nM	
O=C(O)CC1c2ccccc2C(=O)N(CC(=O)NCc2ccc(-c3nc4ccccc4[nH]3)nc2)c2ccccc21 (centres undefined)	200 nM	
O=C(O)CC1c2ccccc2C(=O)N(CC(=O)NCc2cccc(-c3nc4ccccc4[nH]3)c2)c2ccccc21 (centres undefined)	10000 nM	
O=C(O)CC1c2ccccc2C(=O)N(CC(=O)NCc2ccc(OC(=O)NCc3ccccc3)cc2)c2ccccc21 (centres undefined)	10000 nM	
NC(N)=Nc1ccc(CNC(=O)CN2C(=O)c3ccccc3C(CC(=O)O)c3ccccc32)cc1 (centres undefined)	84 nM	
O=C(O)CC1c2ccccc2C(=O)N(CC(=O)NCc2ccc(NC(=O)OCc3ccccc3)cc2)c2ccccc21 (centres undefined)	10000 nM	
O=C(O)CC1c2ccccc2C(=O)N(CC(=O)NCc2nc(-c3nc4ccccc4[nH]3)cs2)c2ccccc21 (centres undefined)	1000 nM	
